Test results published in PubChem BioAssay AID330 (DTP/NCI, 2004).
Where “and” joins values, the source holds several entries; their conditions need not be identical. Equal values may be shown once. Inconclusive results and toxic doses are left out. The calls were made as follows: active = survival T/C of 150% or more; inactive = T/C below 125% in these data. Square brackets hold non-standard residues; d marks the D form. Peptide text beside a SMILES is read from it. Ac5c = NC1(C(=O)O)CCCC1

Tested on: P388 leukemia ip, CD2F1 mice, survival T/C
Assay: NCI In Vivo Anticancer Drug Screen. Data for tumor model P388 Leukemia (intraperitoneal) in CD2F1 (CDF1) mice
Conditions: endpoint: median survival time, higher = longer survival
Method in brief: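 Mice carrying the transplanted tumor received test compound or vehicle. Survival was recorded in each group, and the value is the treated-group measurement divided by that of the vehicle-treated control group.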

[1] = dose: 25.0 mg/kg/injection, schedule: Q01DX009 (ip), vehicle: Klucel (hydroxypropylcellulose) (HPC)
[2] = dose: 50.0 mg/kg/injection, schedule: Q01DX005 (ip), vehicle: Klucel (hydroxypropylcellulose) (HPC)
[3] = dose: 100.0 mg/kg/injection, schedule: Q01DX005 (ip), vehicle: Klucel (hydroxypropylcellulose) (HPC)
[4] = dose: 60.0 mg/kg/injection, schedule: Q01DX005 (ip), vehicle: Klucel (hydroxypropylcellulose) (HPC)
[5] = dose: 120.0 mg/kg/injection, schedule: Q01DX005 (ip), vehicle: Klucel (hydroxypropylcellulose) (HPC)
[6] = dose: 240.0 mg/kg/injection, schedule: Q01DX005 (ip), vehicle: Klucel (hydroxypropylcellulose) (HPC)
[7] = dose: 50.0 mg/kg/injection, schedule: Q01DX005 (ip), vehicle: saline with Tween-80
[8] = dose: 100.0 mg/kg/injection, schedule: Q01DX005 (ip), vehicle: saline with Tween-80
[9] = dose: 200.0 mg/kg/injection, schedule: Q01DX005 (ip), vehicle: saline with Tween-80
[10] = dose: 50.0 mg/kg/injection, schedule: Q01DX009 (ip), vehicle: saline with Tween-80
[11] = dose: 100.0 mg/kg/injection, schedule: Q01DX009 (ip), vehicle: saline with Tween-80
[12] = dose: 12.5 mg/kg/injection, schedule: Q01DX009 (ip), vehicle: saline
[13] = dose: 25.0 mg/kg/injection, schedule: Q01DX009 (ip), vehicle: saline
[14] = dose: 50.0 mg/kg/injection, schedule: Q01DX009 (ip), vehicle: saline
[15] = dose: 50.0 mg/kg/injection, schedule: Q01DX009 (ip), vehicle: Klucel (hydroxypropylcellulose) (HPC)
[16] = dose: 100.0 mg/kg/injection, schedule: Q01DX009 (ip), vehicle: Klucel (hydroxypropylcellulose) (HPC)
[17] = dose: 200.0 mg/kg/injection, schedule: Q01DX009 (ip), vehicle: Klucel (hydroxypropylcellulose) (HPC)
[18] = dose: 50.0 mg/kg/injection, schedule: Q01DX009 (ip), vehicle: suspension in saline

Measured: T/C

Nc1ncnc2c1ncn2CC1OC(O)C(O)C1NC(=O)C(N)Cc1ccccc1 (stereo unspecified)
inactive: dose: 8.0 mg/kg/injection, schedule: Q01DX005 (ip), vehicle: saline 94 % of control | dose: 16.0 mg/kg/injection, schedule: Q01DX005 (ip), vehicle: saline 106 % of control | dose: 32.0 mg/kg/injection, schedule: Q01DX005 (ip), vehicle: saline 94 % of control | dose: 64.0 mg/kg/injection, schedule: Q01DX005 (ip), vehicle: saline 101 % of control | dose: 128.0 mg/kg/injection, schedule: Q01DX005 (ip), vehicle: saline 94 % of control | dose: 256.0 mg/kg/injection, schedule: Q01DX005 (ip), vehicle: saline 97 % of control

O=[N+]([O-])c1ccc([S][Pb]([c]2ccccc2)([c]2ccccc2)[c]2ccccc2)cc1
inactive: dose: 6.25 mg/kg/injection, schedule: Q01DX009 (ip), vehicle: Klucel (hydroxypropylcellulose) (HPC) 100 % of control | dose: 12.5 mg/kg/injection, schedule: Q01DX009 (ip), vehicle: Klucel (hydroxypropylcellulose) (HPC) 102 % of control | [1] 89 % of control

Cc1ccc2ccccc2c1C(=N)c1cc2ccccc2c2ccccc12
inactive: [2] 105 % of control | [3] 87 % of control

CC(=O)Nc1ccc(Nc2nc(Cl)nc(Nc3ccc(NC(C)=O)cc3)n2)cc1
inactive: dose: 30.0 mg/kg/injection, schedule: Q01DX005 (ip), vehicle: Klucel (hydroxypropylcellulose) (HPC) 100 % of control | [4] 89 % of control and 97 % of control | [5] 93 % of control | [6] 89 % of control

Cc1cc(NC(=O)c2ccc(C(=O)Nc3ccc(N=Nc4cc(S(=O)(=O)O)c5cccc(S(=O)(=O)O)c5c4)c(C)c3)cc2)ccc1N=Nc1cc(S(=O)(=O)O)c2cccc(S(=O)(=O)O)c2c1
inactive: [7] 94 % of control | [8] 93 % of control | [9] 98 % of control

CC(CCC(=O)O)C1CCC2C3CCC4CC(OC=O)CCC4(C)C3CC(OC=O)C12C (stereo unspecified)
inactive: [10] 95 % of control | dose: 50.0 mg/kg/injection, schedule: Q04DX003 (ip), vehicle: saline with Tween-80 105 % of control | [11] 90 % of control | dose: 100.0 mg/kg/injection, schedule: Q04DX003 (ip), vehicle: saline with Tween-80 100 % of control | dose: 200.0 mg/kg/injection, schedule: Q01DX009 (ip), vehicle: saline with Tween-80 90 % of control | dose: 200.0 mg/kg/injection, schedule: Q04DX003 (ip), vehicle: saline with Tween-80 100 % of control

CN(C)C(=O)c1nc(CNC(=O)CN)n(-c2ccc(Cl)cc2C(=O)c2ccccc2)n1
inactive: [4] 103 % of control | [5] 100 % of control

Cc1nc(N)c2ncn(C3OC(CO)C(O)C3O)c2n1 (stereo unspecified)
inactive: dose: 6.25 mg/kg/injection, schedule: Q01DX009 (ip), vehicle: saline 100 % of control | [12] 106 % of control | [13] 109 % of control | [14] 112 % of control

CCCC[As](CCCC)SC1CCC2(C)C(=CCC3C4CCC(=O)C4(C)CCC32)C1 (stereo unspecified)
inactive: dose: 12.5 mg/kg/injection, schedule: Q01DX009 (ip), vehicle: distilled water + Tween-80 98 % of control | dose: 25.0 mg/kg/injection, schedule: Q01DX009 (ip), vehicle: distilled water + Tween-80 98 % of control | dose: 50.0 mg/kg/injection, schedule: Q01DX009 (ip), vehicle: distilled water + Tween-80 92 % of control | dose: 100.0 mg/kg/injection, schedule: Q01DX009 (ip), vehicle: distilled water + Tween-80 89 % of control | dose: 200.0 mg/kg/injection, schedule: Q01DX009 (ip), vehicle: distilled water + Tween-80 107 % of control

O=C(Cc1nc2ccccc2[nH]1)N/N=C1\SCC(=O)N1c1ccc(Cl)cc1
inactive: [2] 103 % of control | [3] 108 % of control | dose: 200.0 mg/kg/injection, schedule: Q01DX005 (ip), vehicle: Klucel (hydroxypropylcellulose) (HPC) 104 % of control

COc1ccc2c(c1)[C@@]13CCCC[C@H]1[C@@H](C2)[N+](C)=CC3=NO
inactive: [4] 105 % of control

CC1(C)CC(O)(C(Cl)c2ccccc2)C(=O)c2ccccc21 (stereo unspecified)
inactive: [1] 96 % of control | [15] 93 % of control | [16] 93 % of control | [17] 94 % of control | dose: 400.0 mg/kg/injection, schedule: Q01DX009 (ip), vehicle: Klucel (hydroxypropylcellulose) (HPC) 86 % of control

CS(=O)(=O)c1ccc(C[N+]23CN4CN(CN(C4)C2)C3)cc1
inactive: [4] 98 % of control | [5] 99 % of control | [6] 98 % of control

CCOC(=O)C1=C(C#N)C(C(=O)OCC)c2ncccc21 (stereo unspecified)
inactive: dose: 25.0 mg/kg/injection, schedule: Q01DX009 (ip), vehicle: suspension in saline 93 % of control | [18] 93 % of control | dose: 100.0 mg/kg/injection, schedule: Q01DX009 (ip), vehicle: suspension in saline 100 % of control | dose: 200.0 mg/kg/injection, schedule: Q01DX009 (ip), vehicle: suspension in saline 92 % of control

COc1ccc(/C=C2\C=CC(=O)O2)cc1
inactive: dose: 100.0 mg/kg/injection, schedule: Q01DX002 (ip), vehicle: Klucel (hydroxypropylcellulose) (HPC) 104 % of control | dose: 200.0 mg/kg/injection, schedule: Q01DX002 (ip), vehicle: Klucel (hydroxypropylcellulose) (HPC) 103 % of control | dose: 400.0 mg/kg/injection, schedule: Q01DX002 (ip), vehicle: Klucel (hydroxypropylcellulose) (HPC) 105 % of control

Nc1nc2ccc(CO)nc2c(=O)[nH]1
inactive: [7] 98 % of control | [8] 106 % of control | [9] 101 % of control

COC1NC(=S)N(C(C)(C)C)C1(C)C (stereo unspecified)
inactive: [12] 99 % of control | [13] 100 % of control | [14] 107 % of control | [18] 97 % of control

COCCN1CC(=O)N2Cc3ccccc3CN2C(=O)C1
inactive: dose: 12.5 mg/kg/injection, schedule: Q01DX005 (ip), vehicle: saline with Tween-80 107 % of control | dose: 25.0 mg/kg/injection, schedule: Q01DX005 (ip), vehicle: saline with Tween-80 105 % of control | [7] 100 % of control and 101 % of control | [9] 101 % of control

CC(=O)OC1=CC(=O)N(C(=O)c2ccccc2)C1
inactive: [15] 105 % of control | [16] 116 % of control | [17] 113 % of control

CCOC(=O)C1(Br)CCCCC1Br (stereo unspecified)
inactive: dose: 25.0 mg/kg/injection, schedule: Q01DX009 (ip), vehicle: saline with Tween-80 108 % of control and 111 % of control | [10] 115 % of control and 118 % of control | [11] 113 % of control and 118 % of control and 119 % of control

O=C1NC(=O)c2cc3ccccc3cc21
inactive: [7] 87 % of control | [8] 87 % of control | [9] 91 % of control

COC(=O)c1nc(=S)[nH]c(C(=O)OC)c1C(=O)c1ccc(O)c(OC)c1
inactive: [4] 104 % of control | [5] 90 % of control

CNC(=O)N(C)CP(=O)(O)OC
inactive: [14] 100 % of control | dose: 100.0 mg/kg/injection, schedule: Q01DX009 (ip), vehicle: saline 98 % of control | dose: 200.0 mg/kg/injection, schedule: Q01DX009 (ip), vehicle: saline 91 % of control

CCSc1nc2ccc(NCn3nnc4ccccc43)cc2s1
inactive: [4] 98 % of control | [5] 89 % of control | [6] 90 % of control

NCC(=O)NCC(=O)NC1(C(=O)O)CCCC1 (H-Gly-Gly-[Ac5c]-OH)
inactive: dose: 50.0 mg/kg/injection, schedule: Q01DX005 (ip), vehicle: saline 102 % of control and 103 % of control | dose: 100.0 mg/kg/injection, schedule: Q01DX005 (ip), vehicle: saline 110 % of control and 113 % of control | dose: 200.0 mg/kg/injection, schedule: Q01DX005 (ip), vehicle: saline 110 % of control | dose: 400.0 mg/kg/injection, schedule: Q01DX005 (ip), vehicle: saline 116 % of control and 87 % of control
